# Measurements reported in patent publication US9988379B2, “GPR40 receptor agonist, methods of preparing the same, and pharmaceutical compositions containing the same as an active agent” (LG CHEM, LTD., priority 2012, dated 2018).
# Target: T1, human GPR40 (Homo sapiens, UniProt O14842)
# T1 construct: expressed in transfected cells; host or cells: CHO-K1
# Experiment: Induction of Ca2+ (calcium flux assay) using human GPR40 expression cell line
# Format: cell-based
# Conditions: read-out: EC0.5
# Summary of the method: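 CHO-K1 cells stably transfected with human GPR40, plated 24 h, loaded 1 h at 37° C with Calcium 5 dye in HBSS/HEPES pH 7.4. Intracellular calcium change after compound addition read on FlexStation; concentration–response of relative activity used to derive EC0.5.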
# T1 sequence (O14842 whole entry): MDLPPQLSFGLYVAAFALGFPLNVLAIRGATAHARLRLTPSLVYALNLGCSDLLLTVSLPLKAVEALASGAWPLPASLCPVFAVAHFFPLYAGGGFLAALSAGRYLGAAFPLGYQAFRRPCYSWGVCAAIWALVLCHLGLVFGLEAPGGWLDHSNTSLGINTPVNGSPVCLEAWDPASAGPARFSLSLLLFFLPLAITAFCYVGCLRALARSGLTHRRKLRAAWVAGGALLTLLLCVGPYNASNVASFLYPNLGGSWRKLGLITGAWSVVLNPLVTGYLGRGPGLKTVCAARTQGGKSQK
row,Compound,EC50
1,"CC#C[C@@H](CC(=O)O)c1ccc(OCc2ccc3c(COC)nn(CC(C)C)c3c2)cc1 [Example 188, (S)-3-[4-(1-isobutyl-3-methoxymethyl-1H-indazol-6-ylmethoxy)-phenyl]-hex-4-ynoic acid]",5 nM
2,"CC#C[C@@H](CC(=O)O)c1ccc(OCc2cccc3c2c(F)nn3CC(C)C)cc1 [Example 189, (S)-3-[4-(3-fluoro-1-isobutyl-1H-indazol-4-ylmethoxy)-phenyl]-hex-4-ynoic acid]",1 to 50 nM
3,"CC#C[C@@H](CC(=O)O)c1ccc(OCc2cccc3c2cnn3C(C)C)cc1 [Example 190, (S)-3-[4-(1-isopropyl-1H-indazol-4-ylmethoxy)-phenyl]-hex-4-ynoic acid]",40 nM
4,"CC#C[C@@H](CC(=O)O)c1ccc(OCc2ccc3c(COCC)nn(CC(C)C)c3c2)cc1 [Example 191, (S)-3-[4-(3-ethoxymethyl-1-isobutyl-1H-indazol-6-ylmethoxy)-phenyl]-hex-4-ynoic acid]",10 nM
5,"CC#C[C@@H](CC(=O)O)c1ccc(OCc2cccc3c2c(Cl)nn3CC(C)C)cc1 [Example 192, (S)-3-[4-(3-chloro-1-isobutyl-1H-indazol-4-ylmethoxy)-phenyl]-hex-4-ynoic acid]",30 nM
6,"CC#C[C@@H](CC(=O)O)c1ccc(OCc2ccc3c(COC(C)C)nn(CC(C)C)c3c2)cc1 [Example 193, (S)-3-[4-(1-isobutyl-3-isopropoxymethyl-1H-indazol-6-ylmethoxy)-phenyl]-hex-4-ynoic acid]",3 nM
7,"CC#C[C@@H](CC(=O)O)c1ccc(OCc2cccc3c2c(F)nn3C(C)C)cc1 [Example 194, (S)-3-[4-(3-fluoro-1-isopropyl-1H-indazol-4-ylmethoxy)-phenyl]-hex-4-ynoic acid]",1 to 50 nM
8,"CC#C[C@@H](CC(=O)O)c1ccc(OCc2cccc3c(Br)nn(C)c23)cc1 [Example 195, (S)-3-[4-(3-bromo-1-methyl-1H-indazol-7-ylmethoxy)-phenyl]-hex-4-ynoic acid]",6 nM
9,"CC#C[C@@H](CC(=O)O)c1ccc(OCc2ccc3c(COC)nn(CC(C)C)c3c2C)cc1 [Example 196, (S)-3-[4-(1-isobutyl-3-methoxymethyl-7-methyl-1H-indazol-6-ylmethoxy)-phenyl]-hex-4-ynoic acid]",5 nM
10,"CC#C[C@@H](CC(=O)O)c1ccc(OCc2cccc3c2cnn3CCCC)cc1 [Example 197, (S)-3-[4-(1-butyl-1H-indazol-4-ylmethoxy)-phenyl]-hex-4-ynoic acid]",5 nM
11,"CC#C[C@@H](CC(=O)O)c1ccc(OCc2cccc3c2c(F)nn3CCCC)cc1 [Example 198, (S)-3-[4-(1-butyl-3-fluoro-1H-indazol-4-ylmethoxy)-phenyl]-hex-4-ynoic acid]",16 nM
12,"CC#C[C@@H](CC(=O)O)c1ccc(OCc2cccc3c2cnn3CC2CC2)cc1 [Example 199, (S)-3-[4-(1-cyclopropylmethyl-1H-indazol-4-ylmethoxy)-phenyl]-hex-4-ynoic acid]",17 nM
13,"CC#C[C@@H](CC(=O)O)c1ccc(OCc2cccc3c2c(F)nn3CC2CC2)cc1 [Example 200, (S)-3-[4-(1-cyclopropylmethyl-3-fluoro-1H-indazol-4-ylmethoxy)-phenyl]-hex-4-ynoic acid]",9 nM
14,"CC#C[C@@H](CC(=O)O)c1ccc(OCc2cccc3c(Cl)nn(C)c23)cc1 [Example 201, (S)-3-[4-(3-chloro-1-methyl-1H-indazol-7-ylmethoxy)-methyl]-hex-4-ynoic acid]",10 nM
15,"CC#C[C@@H](CC(=O)O)c1ccc(OCc2ccc3c(Cn4cccn4)nn(C(C)C)c3c2)cc1 [Example 202, (S)-3-[4-(1-isopropyl-3-pyrazol-1-ylmethyl-1H-indazol-6-ylmethoxy)-phenyl]-hex-4-ynoic acid]",8 nM
16,"CC#C[C@@H](CC(=O)O)c1ccc(OCc2cccc3c(F)nn(C)c23)cc1 [Example 203, (S)-3-[4-(3-fluoro-1-methyl-1H-indazol-7-ylmethoxy)-phenyl]-hex-4-ynoic acid]",1 to 50 nM
17,"CC#C[C@@H](CC(=O)O)c1ccc(OCc2ccnc3c2ccn3CC(C)C)cc1 [Example 204, (S)-3-[4-(1-isobutyl-1H-pyrrolo[2,3-b]pyridin-4-ylmethoxy)-phenyl]-hex-4-ynoic acid]",9 nM
18,"CC#C[C@@H](CC(=O)O)c1ccc(OCc2cccc3c2c(C)nn3CCCC)cc1 [Example 205, (S)-3-[4-(1-butyl-3-methyl-1H-indazol-4-ylmethoxy)-phenyl]-hex-4-ynoic acid]",16 nM
19,"CC#C[C@@H](CC(=O)O)c1ccc(OCc2cccc3c(CCCC)nn(C)c23)cc1 [Example 206, (S)-3-[4-(3-butyl-1-methyl-1H-indazol-7-ylmethoxy)-phenyl]-hex-4-ynoic acid]",1 to 50 nM
20,"CC#C[C@@H](CC(=O)O)c1ccc(OCc2cccc3c(CC(C)C)nn(C)c23)cc1 [Example 207, (S)-3-[4-(3-isobutyl-1-methyl-1H-indazol-7-ylmethoxy)-phenyl]-hex-4-ynoic acid]",1 to 50 nM
21,"CC#C[C@@H](CC(=O)O)c1ccc(OCc2ccc(C)c3c2cnn3CC(C)C)cc1 [Example 208, (S)-3-[4-(1-isobutyl-7-methyl-1H-indazol-4-ylmethoxy)-phenyl]-hex-4-ynoic acid]",5 nM
22,"CC#C[C@@H](CC(=O)O)c1ccc(OCc2cccc3c(C(C)C)nn(C)c23)cc1 [Example 209, (S)-3-[4-(3-isopropyl-1-methyl-1H-indazol-7-ylmethoxy)-phenyl]-hex-4-ynoic acid]",1 to 50 nM
23,"CC#C[C@@H](CC(=O)O)c1ccc(OCc2cccc3c(CCC)nn(C)c23)cc1 [Example 210, (S)-3-[4-(1-methyl-3-propyl-1H-indazol-7-ylmethoxy)-phenyl]-hex-4-ynoic acid]",8 nM
24,"CC#C[C@@H](CC(=O)O)c1ccc(OCc2ccc3cnn(CC(C)C)c3c2C)cc1 [Example 211, (S)-3-[4-(1-isobutyl-7-methyl-1H-indazol-6-ylmethoxy)-phenyl]-hex-4-ynoic acid]",4 nM
25,"CC#C[C@@H](CC(=O)O)c1ccc(OCc2ccc3c(C)nn(CC(C)C)c3c2C)cc1 [Example 212, (S)-3-[4-(1-isobutyl-3,7-dimethyl-1H-indazol-6-ylmethoxy)-phenyl]-hex-4-ynoic acid]",2 nM
26,"CC#C[C@@H](CC(=O)O)c1ccc(OCc2ccc(C)c3c2c(F)nn3CC(C)C)cc1 [Example 213, (S)-3-[4-(3-fluoro-1-isobutyl-7-methyl-1H-indazol-4-ylmethoxy)-phenyl]-hex-4-ynoic acid]",1 to 50 nM

# The next lines start with the values.
row,EC50,Compound
1,2 nM,"CC#C[C@@H](CC(=O)O)c1ccc(OCc2ccc3c(F)nn(CC)c3c2C)cc1 [Example 214, (S)-3-[4-(1-ethyl-3-fluoro-7-methyl-1H-indazol-6-ylmethoxy)-phenyl]-hex-4-ynoic acid]"
2,10 nM,"CC#C[C@@H](CC(=O)O)c1ccc(OCc2ccc3c(CN4CCOCC4)nn(CC(C)C)c3c2C)cc1 [Example 215, (S)-3-[4-(1-isobutyl-7-methyl-3-morpholin-4-ylmethyl-1H-indazol-6-ylmethoxy)-phenyl]-hex-4-ynoic acid]"
3,6 nM,"CC#C[C@@H](CC(=O)O)c1ccc(OCc2ccc3c(CN4CCOCC4)nn(CC(C)C)c3c2Cl)cc1 [Example 216, (S)-3-[4-(7-chloro-1-isobutyl-3-morpholin-4-ylmethyl-1H-indazol-6-ylmethoxy)-phenyl]-hex-4-ynoic acid]"
4,20 nM,"CC#C[C@@H](CC(=O)O)c1ccc(OCc2ccc3c(CN4CCCC4)nn(CC(C)C)c3c2C)cc1 [Example 217, (S)-3-[4-(1-isobutyl-7-methyl-3-pyrrolidin-1-ylmethyl-1H-indazol-6-ylmethoxy)-phenyl]-hex-4-ynoic acid]"
5,14 nM,"CC#C[C@@H](CC(=O)O)c1ccc(OCc2ccc3c(CN4CCCCC4)nn(CC(C)C)c3c2C)cc1 [Example 218, (S)-3-[4-(1-isobutyl-7-methyl-3-piperidin-1-ylmethyl-1H-indazol-6-ylmethoxy)-phenyl]-hex-4-ynoic acid]"
6,23 nM,"CC#C[C@@H](CC(=O)O)c1ccc(OCc2ccc3c(CN4CCOCC4)nn(CC(C)C)c3c2)cc1 [Example 219, (S)-3-[4-(1-isobutyl-3-morpholin-4-ylmethyl-1H-indazol-6-ylmethoxy)-phenyl]-hex-4-ynoic acid]"
7,3 nM,"CC#C[C@@H](CC(=O)O)c1ccc(OCc2ccc3cnn(C(C)C)c3c2C)cc1 [Example 220, (S)-3-[4-(1-isopropyl-7-methyl-1H-indazol-6-ylmethoxy)-phenyl]-hex-4-ynoic acid]"
8,5 nM,"CC#C[C@@H](CC(=O)O)c1ccc(OCc2ccc3cnn(CCC)c3c2C)cc1 [Example 221, (S)-3-[4-(7-methyl-1-propyl-1H-indazol-6-ylmethoxy)-phenyl]-hex-4-ynoic acid]"
9,5 nM,"CC#C[C@@H](CC(=O)O)c1ccc(OCc2ccc3c(CF)nn(CC(C)C)c3c2C)cc1 [Example 222, (S)-3-[4-(3-fluoromethyl-1-isobutyl-7-methyl-1H-indazol-6-ylmethoxy)-phenyl]-hex-4-ynoic acid]"
10,11 nM,"CC#C[C@@H](CC(=O)O)c1ccc(OCc2ccc(C)c3c2cnn3C(C)C)cc1 [Example 223, (S)-3-[4-(1-isopropyl-7-methyl-1H-indazol-4-ylmethoxy)-phenyl]-hex-4-ynoic acid]"
11,27 nM,"CC#C[C@@H](CC(=O)O)c1ccc(OCc2ccnc3c2ccn3C(C)C)cc1 [Example 224, (S)-3-[4-(1-isopropyl-1H-pyrrolo[2,3-b]pyridin-4-ylmethoxy)-phenyl]-hex-4-ynoic acid]"
12,13 nM,"CC#C[C@@H](CC(=O)O)c1ccc(OCc2ccnc3c2c(F)cn3CC(C)C)cc1 [Example 225, (S)-3-[4-(3-fluoro-1-isobutyl-1H-pyrrolo[2,3-b]pyridin-4-ylmethoxy)-phenyl]-hex-4-ynoic acid]"
13,9 nM,"CC#C[C@@H](CC(=O)O)c1ccc(OCc2ccc3cnn(Cc4cccnc4)c3c2C)cc1 [Example 226, (S)-3-[4-(7-methyl-1-pyridin-3-ylmethyl-1H-indazol-6-ylmethoxy)-phenyl]-hex-4-ynoic acid]"
